Assay results: ChEMBL document CHEMBL1201862, “PubChem BioAssay data set” (2004)
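Tested at 5 concentrations; 48 h exposure; 96-well plates; endpoints linearly interpolated, else capped at highest concentration. The concentration for 50% growth inhibition is given as GI50.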 Active and inactive are the calls of the source. Rule as the data show it: active = GI50 up to about 1.1 µM and inactive = higher.

Legend:
Test in all cases: inhibition of tumour cell growth, NCI panel, 48 h
[1] = system: HL-60
[2] = system: SF-539
[3] = system: NCI-H522
[4] = system: Malme-3M
[5] = system: SNB-75
[6] = system: 786-0
[7] = system: RXF 393
[8] = system: SK-MEL-5
[9] = system: XF498
[10] = system: ACHN
[11] = system: SK-MEL-2
[12] = system: CCRF-CEM
[13] = system: MDA-MB-435
[14] = system: LXFL 529
[15] = system: KM-20L2
[16] = system: NCI-H226
[17] = system: COLO 205
[18] = system: MCF7
[19] = system: SK-OV-3
[20] = system: NCI-H460
[21] = system: M14
[22] = system: HCT-15
[23] = system: MDA-MB-231
[24] = system: RXF 631
[25] = system: MDA-N
[26] = system: SK-MEL-28
[27] = system: MOLT-4
[28] = system: TK-10
[29] = system: OVCAR-3
[30] = system: Hs-578T
[31] = system: RPMI-8226
[32] = system: PC-3
[33] = system: SNB-19
[34] = system: K562
[35] = system: UACC-62
[36] = system: A498
[37] = system: NCI-H23
[38] = system: SW-620
[39] = system: DMS-273
[40] = system: SN12C
[41] = system: HCT-116
[42] = system: SF-268
[43] = system: OVCAR-8
[44] = system: SF-295
[45] = system: UO-31
[46] = system: T47D
[47] = system: OVCAR-5
[48] = system: U-251
[49] = system: EKVX
[50] = system: OVCAR-4
[51] = system: HT-29
[52] = system: HOP-92
[53] = system: UACC-257
[54] = system: NCI/ADR-RES
[55] = system: DMS-114
[56] = system: A549
[57] = system: HCC 2998
[58] = system: KM12
[59] = system: LOX IMVI
[60] = system: CAKI-1
[61] = system: DLD-1
[62] = system: HOP-18
[63] = system: HOP-62
[64] = system: DU-145
[65] = system: M19-MEL
[66] = system: IGROV-1
[67] = system: SR
[68] = system: SNB-78

Measured: GI50

COc1ccc(NC(=O)CC(=O)n2nc(-c3ccccc3)c(/N=N/c3ccccc3C)c2-c2ccccc2)cc1
35.5 µM: [22]
inactive: [1] 54.6 µM | [2] 15.1 µM | [3] 23.6 µM | [4] 24.3 µM | [5] 18.7 µM | [6] 18.5 µM | [7] 17.3 µM | [8] 40.2 µM | [9] 19.3 µM | [10] 26.1 µM | [11] 18.2 µM | [12] > 61.9 µM | [13] > 100 µM | [14] 40 µM | [15] > 100 µM | [16] 26 µM | [17] > 61.7 µM | [18] 35.3 µM | [19] 19.9 µM | [20] 22.4 µM | [21] 40.9 µM | [23] 71 µM | [24] 33.7 µM | [25] > 100 µM | [26] > 41.7 µM | [27] > 64.1 µM | [28] 24.7 µM | [29] 17.3 µM | [30] 14.3 µM | [31] > 58.5 µM | [32] 17.1 µM | [33] 25.2 µM | [34] > 79.8 µM | [35] 19.2 µM | [36] 21.5 µM | [37] 22.1 µM | [38] 35.4 µM | [39] 16.5 µM | [40] 53.6 µM | [41] 20.5 µM | [42] 17.9 µM | [43] 28 µM | [44] 23.3 µM | [45] 35.6 µM | [46] 22.7 µM | [47] > 100 µM | [48] 16.4 µM | [49] 16.3 µM | [50] 23.9 µM | [51] 44.9 µM | [52] 15.6 µM | [53] 64.1 µM | [54] 29.6 µM | [55] 24.3 µM | [56] 23.6 µM | [57] > 78.7 µM | [58] 53.3 µM | [59] 41 µM | [60] 17.3 µM | [61] 21.6 µM | [62] 42.5 µM | [63] 15.9 µM | [64] 45.8 µM | [65] 51.8 µM | [66] 21.4 µM | [67] 35.9 µM

CCOC(=O)/C(=C/c1cc(OC)ccc1OC)CC(=O)O
inactive: [1] > 31.6 µM | [2] > 100 µM | [3] > 100 µM | [4] > 31.6 µM | [5] > 100 µM | [6] > 31.6 µM | [7] > 100 µM | [8] > 100 µM | [9] > 39.3 µM | [10] > 100 µM | [11] 19.5 µM | [12] > 31.6 µM | [14] > 100 µM | [15] > 100 µM | [17] > 100 µM | [19] > 100 µM | [20] > 100 µM | [21] > 100 µM | [24] > 100 µM | [26] > 100 µM | [27] > 25.7 µM | [28] > 100 µM | [29] > 100 µM | [33] > 100 µM | [34] > 31.6 µM | [35] > 100 µM | [36] > 100 µM | [37] > 100 µM | [38] > 100 µM | [39] > 100 µM | [40] > 100 µM | [41] > 100 µM | [42] > 100 µM | [43] > 100 µM | [44] > 100 µM | [68] > 100 µM | [45] > 100 µM | [48] > 100 µM | [49] > 100 µM | [50] > 100 µM | [51] > 94.4 µM | [52] > 100 µM | [53] > 100 µM | [55] > 100 µM | [56] > 100 µM | [57] > 31.6 µM | [58] > 100 µM | [59] > 100 µM | [60] > 100 µM | [61] > 31.6 µM | [62] > 100 µM | [63] > 10 µM | [65] > 100 µM | [66] > 100 µM | [67] > 100 µM
> 43.7 µM: [22]
